According to patent publication US20200316159A1, “SUSTAINED RELEASE COMPOSITIONS OF KAPPA-OPIOID RECEPTOR AGONIST” (JT PHARMACEUTICALS, INC., priority 2016, published 2020):
Non-standard residues stand in square brackets, D forms with d. Residues, ends and D or L forms follow the SMILES beside them. *: point of attachment. NH(4-picolyl) = c1cc(CN*)ccn1; dNle = CCCC[C@@H](N)C(=O)O

Assays:
[1] = system: central pain (acute thermal stimuli); test: Hotplate model (Example 1); format: in vivo, rat (male Sprague-Dawley); conditions: morphine at 5 mg/kg
Protocol: The hotplate model evaluates central pain attenuation in a rodent after applying an acute thermal stimuli. The rat is treated with compound and assessed over time on a hotplate analgesia meter (Columbus Instruments, Columbus, Ohio), essentially a flat surface maintained at 53.0+/−0.2° C. The time until the rat lifts, nibbles or shakes one of its hind paws is recorded, which is known as the response latency. Animals remain on the hotplate no longer than 30 sec to avoid tissue damage. Experiments are scored as the percent of maximal possible effect (% MPE) calculated using the following equation: % MPE=[(post-drug latency−pre-drug latency)/(cut-off pre-drug latency)]×100%. The dose response curves and EC50 values were generated using GraphPad Prism®.
As discussed, central availability of a kappa agonist can lead to undesirable side effects. To assess the peripheral to central selectivity of compound 9 an i.v. dose response of this drug was performed in both a model of peripheral pain (A. the writhing assay) and central pain (B. the hotplate assay). The ratio of EC50s for each of these assays can then be used to determine the peripheral selectivity of the drug.

[2] = system: sedation (distance traveled); test: Locomotor open field test; conditions: JT09 20 mg/kg p.o.; morphine 10 mg/kg i.p.
Protocol: Locomotor Open Field Test.
Sedation and a loss of muscle coordination are common CNS-mediated side effects of opioids. To assess the sedative effects of JT09, rats were given JT09 (20 mg/kg, p.o.) or morphine (10 mg/kg, i.p.) 20 min before placement in an automated (68 l×21 w×21 h cm) activity chambers for a 30 min test. Morphine was used as a comparison group due to its well-known sedative effects.

[3] = system: central pain (acute thermal stimuli); test: Hot plate model (Example 2); format: in vivo, rat; conditions: JT compounds 20 mg/kg oral; morphine 10 mg/kg i.p.
Protocol: The hotplate model evaluates central pain attenuation in a rodent after applying an acute thermal stimuli. Experimental rats were orally gavaged with lead compounds JT07 or JT09 (20 mg/kg) and rested for 20 min prior to being placed on the hotplate. Control rats received i.p. injections of morphine (10 mg/kg) and rested for 20 min prior to be being placed on the hotplate. Rats were then assessed over time on a hotplate analgesia meter (Columbus Instruments, Columbus, Ohio), essentially a flat surface maintained at 53.0+/−0.2° C. The time until the rat lifted, nibbled, or shook one of its hind paws was recorded, which is known as the response latency. Animals remained on the hotplate no longer that 30 sec to avoid tissue damage. Experiments were scored as the percent of maximal possible effect (% MPE) calculated using the following equation: % MPE=[(post-drug latency−pre-drug latency)/(cut-off pre-drug latency)]×100%. The dose response curves and EC50 values were generated using GraphPad Prism.
As an initial screen for analgesic activity, JT07 and JT09 were evaluated in the hotplate analgesic model using a standard oral dose of 20 mg/kg. Percent maximum possible effect was analyzed for each compound and compared to morphine (10 mg/kg, i.p.).

[4] = molecular target: kappa opioid receptor (Homo sapiens, UniProt P41145); test: Opioid receptor activation assay, DiscoveRx PathHunter Beta-Arrestin, kappa; format: cell-based; conditions: PathHunter Beta-Arrestin; for EC50: 3-6 repeats, read-out: 95% confidence levels of EC50, activation of kappa receptors
Excerpt: Opioid Receptor Activation Assay.
PathHunter™ Beta-Arrestin GPCR Functional Profiling and Screening cell lines that express the individual opioid receptors were obtained from DiscoveRx (Fremont, Calif.). These cells express the kappa (or mu or delta) opioid receptor fused to a proprietary β-galactosidase enzyme fragment and the […]-arrestin gene fused to an enzyme acceptor (the remaining fragment of β-galactosidase). Upon activation of the receptor, β-arrestin is recruited to the GPCR and the β-galactosidase is activated through enzyme complementation. Cells were grown using standard cell culture techniques and then plated at 30,000 cells/well in 90 μl in a 96 well white, clear bottom plate and incubated overnight. Dilutions were prepared in dilution buffer (HBBS, 20 mMHepes, 0.1% BSA) and 10 μl added per well. Plates were then incubated for 90 min at 37° C. in a water-saturated atmosphere. Plates were then allowed to come to room temp and DiscoveRx's proprietary developing agent added as recommended by the manufacturer. This agent contains a detergent, 6-O-β-galactopyranosyl-luciferen and luciferase. Plates were then incubated for 1 hr at room temperature before being read on a luminometer. Antagonist studies were performed in an identical manner except after the overnight incubation 10 μl media was removed and replaced with drug or naloxone at the indicated concentration. […] To calculate % maximal luminescence, background was subtracted from the experimental values and this was divided by maximal luminescence and multiplied by 100.
To confirm this, and to determine their relative activities, we assessed their efficiency using PathHunter™ Beta-Arrestin GPCR Functional Profiling and Screening cell lines from DiscoveRx (Fremont, Calif.) as described in the Materials and Methods section.

[5] = system: peripheral pain (acetic acid-induced writhing); test: Acetic acid-induced writhing model (Example 1); format: in vivo, rat (male Sprague-Dawley); conditions: oral gavage, screening dose 20 mg/kg, 20 min before i.p. 3% acetic acid; Student's t-test p<0.05
Protocol: Acetic Acid-Induced Writhing Model.
This protocol is a well-established model of peripheral pain. Following oral or i.v. administration of compound, rats are rested for 20 min before i.p. injection with 2 ml/kg of 3% acetic acid. Animals are then rested an additional 10 min before being placed in a 10×10 inch chamber. A video of the rats is then recorded for next 20 min. The video is subsequently blindly scored by an investigator who examines each rat every 20 sec for the entire 20 min (60 individual observations). At each observation rats are scored on whether they are writhing or not. Writhing is defined as a constriction of the abdominal area, often with extension of the hind legs. At the end of the experiment the percent of the time the animal was writhing was calculated. The dose-response curves and EC50 values were generated using GraphPad Prism®.
As an initial biological screen the potential for oral availability of the 18 peptides in our library were evaluated in a well-established model of peripheral pain, the acetic acid-induced writhing assay. Rats were administered the various compounds by oral gavage at a screening dose of 20 mg/kg 20 min before i.p. injection with 2 ml/kg of 3% acetic acid. 10 min later animals were assessed for writhing as indicated in the methods section. […] Thus, several of the Arg modifications can impart CR665 with the ability to cross the gut barrier. Compounds 3, 7, 9, 11 and 17 were selected for further analysis.

[6] = system: abuse liability (lever pressing for intravenous drug delivery); test: Self-administration model; format: in vivo, rat; conditions: cocaine 50 ug/50 ul bolus infusion, 7 days, after replacing JT09
Excerpt: Self-Administration Model.
Addiction/dependence is a critical side effect of opioids and must be evaluated with any new member of this family. The most reliable test of abuse liability with the most translational relevance is a contingent drug self-administration model, in which rats are trained to press a lever for intravenous drug delivery. Sixteen standard self-administration chambers (30×20×20 cm, Med Associates) were housed inside sound-attenuating cubicles fitted with a fan for airflow and to mask noise. Each chamber contained two retractable levers, two stimulus lights, a speaker for tone delivery, and a house light to provide general illumination. In addition, each chamber was equipped with a balanced metal arm and spring leash attached to a swivel (Instech). Tygon® tubing extended through the leash and was connected to a 10 ml syringe mounted on an infusion pump located outside the sound-attenuating cubicle. Rats were anesthetized with i.p. injections of ketamine (66 mg/kg; Vedcolnc, St Joseph, Mo., USA), xylazine (1.3 mg/kg; Lloyd Laboratories, Shenandoah, Iowa, USA), and equithesin (0.5 ml/kg); sodium pentobarbital (4 mg/kg), chloral hydrate (17 mg/kg), and 21.3 mg/kg magnesium sulfate heptahydrate dissolved in 44% propylene glycol, 10% ethanol solution). Ketorolac (2.0 mg/kg, i.p. Sigma, St. Louis, Mo., USA) was given just prior to surgery as an analgesic. One end of a silastic catheter was inserted 33 mm into the external right jugular and secured with 4.0 silk sutures. The other end ran subcutaneously and exited from a small incision just below the scapula. This end is attached to an infusion harness (Instech Solomon, Plymouth Meeting, Pa., USA) that provides access to an external port for IV drug delivery. […]
During self-administration, rats received an IV infusion (0.1 ml) of 10 U/ml heparinized saline before each session. […] Cocaine was chosen for comparison purposes because it is readily self-administered.

Chain of kappa opioid receptor (P41145 whole entry): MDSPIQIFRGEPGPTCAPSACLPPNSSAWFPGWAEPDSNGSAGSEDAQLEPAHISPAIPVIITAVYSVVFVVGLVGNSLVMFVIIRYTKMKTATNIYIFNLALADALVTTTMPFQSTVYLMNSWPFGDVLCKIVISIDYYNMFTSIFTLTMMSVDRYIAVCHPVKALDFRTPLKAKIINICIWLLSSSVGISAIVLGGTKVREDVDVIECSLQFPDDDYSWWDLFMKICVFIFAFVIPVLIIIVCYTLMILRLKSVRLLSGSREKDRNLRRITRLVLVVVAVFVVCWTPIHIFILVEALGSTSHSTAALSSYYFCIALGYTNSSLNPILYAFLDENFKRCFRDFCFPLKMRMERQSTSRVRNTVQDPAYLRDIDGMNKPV

Compound | EC50, activation of kappa opioid receptor [4] | EC50 [4] [nM] | also measured
CN1CC[C@]23c4c5ccc(O)c4O[C@H]2[C@@H](O)C=C[C@H]3[C@H]1C5 [morphine] | – | – | time of maximum response in hotplate assay [1]: 15 min; sedation in locomotor test [2]: highly sedative; analgesic activity in hotplate model (% maximum possible effect) [3]: potent analgesic
CCCC[C@@H](NC(=O)[C@@H](Cc1ccccc1)NC(=O)[C@H](N)Cc1ccccc1)C(=O)N[C@H](CCCCNCc1ccccc1)C(=O)NCc1ccncc1 [Compound 11] | low nM range | 8.15 to 26.8 | –
CCCC[C@@H](NC(=O)[C@@H](Cc1ccccc1)NC(=O)[C@H](N)Cc1ccccc1)C(=O)N[C@H](CCCNC(=N)N)C(=O)NCc1ccncc1 [CR665, D-Phe-D-Phe-D-Nle-D-Arg-NH-4-Picolyl, reference compound] (H-[dF][dF][dNle][dR]-{NH(4-picolyl)}) | low nM range | 9.07 to 13.1 | effect on writhing (outward physical signs of peripheral pain) versus saline control [5]: did not have a significant effect
COC(=O)[C@H]1[C@@H](OC(=O)c2ccccc2)C[C@@H]2CC[C@H]1N2C [cocaine, reference compound] | – | – | number of cocaine infusions (nose-poke) [6]: increased over the 7 days
CCCCNC(=N)NCCC[C@@H](NC(=O)[C@@H](CCCC)NC(=O)[C@@H](Cc1ccccc1)NC(=O)[C@H](N)Cc1ccccc1)C(=O)NCc1ccncc1 [Compound 3] | low nM range | 1.38 to 18.7 | –
CCCC[C@@H](NC(=O)[C@@H](Cc1ccccc1)NC(=O)[C@H](N)Cc1ccccc1)C(=O)N[C@H](CCC[N+](C)(C)C)C(=O)NCc1ccncc1 [Compound 17] | low nM range | 47.2 to 166 | –
CCCC[C@@H](NC(=O)[C@@H](Cc1ccccc1)NC(=O)[C@H](N)Cc1ccccc1)C(=O)N[C@H](CCCCNC1CCCCC1)C(=O)NCc1ccncc1 [Compound 7] | low nM range | 5.63 to 13.1 | –
